Data set [1] has as its system IL-4 secretion in mouse splenocytes. Kind of data set: Inhibition of IL-4 secretion in mouse splenocytes (Concanavalin A, ELISA). It counts as cell-based, Balb/c mice. The settings on record: for inhibition at 1 µM: Splenocyte, read-out: IL-4 Secretion inhibitory ability (%); for IL-4 pg/ml: Concanavalin A 5 μg/mL, 48 hours. As to the method:
(§1) The isolated splenocytes were diluted at a concentration of 5×10^6 cells/mL in RPMI medium containing 10% fetal bovine serum (FBS) and antibiotics (penicillin at 100 U/mL, streptomycin at 100 μg/mL), distributed at 500 μl/well in a 24 well plate, and cultured in a 37° C., 5% CO2 incubator for 48 hours. When splenocytes were distributed, an immune reaction was induced by treating with 5 μg/mL of Concanavalin A, and at this time, the splenocytes were treated with the materials selected in Experimental Example 3 at a concentration of 1 uM. First, in order to measure Th2 cytokines, the medium was collected from the 24-well plate, and only the supernatant was separated through centrifugation at 800×g for five minutes, after which 100 μl of the supernatant per well was used in an enzyme-linked immunosorbent assay (ELISA, Komabiotech) experiment so as to measure a degree of secretion of Th2 cytokines IL-4 and IL-5. A degree of inhibition against secretion of cytokines by the test material was calculated using [Equation 2] below, and the measurement results are shown in Table 7.

The test system of data set [2] is IL-4 secretion in RBL-2H3 cells. Briefly: Inhibition of IL-4 secretion in RBL-2H3 cell line (A23187 induced, ELISA). The following applies: Rattus norvegicus. In kind it is cell-based. As to the method:
The RBL-2H3 cell line was purchased from the American Type Culture Collection (ATCC #CRL-2256). The cells were diluted at a concentration of 1×10^6 cells/ml in RPMI medium containing 15% fetal bovine serum (FBS) and antibiotics (penicillin at 100 U/mL, streptomycin at 100 μg/mL), distributed at 200 μl/well in a 48 well plate, and cultured in a 37° C., 5% CO2 incubator for 24 hours. In 24 hours later, the cells were pre-treated one hour before with a test drug and AS1517499 (STAT6 inhibitor) as a control drug, and treated with 1 uM of A23187 for six hours to induce an immune response, after which a group not containing the drug was used as a control. In order to measure a secretion level of cytokine IL-4, the medium was collected from the well plate and centrifuged at 125×g for five minutes to remove a residue, and 100 μl of the medium was used to measure an amount of IL-4 secreted from the cells by using IL-4 enzyme-linked immunosorbent assay (ELISA, Komabiotech). A degree of inhibition of cell secretion by the drug was calculated using [Equation 1] below.
First of all, 288 kinds of materials were treated at a single concentration of 10 uM so as to select 60 kinds of materials which inhibit secretion of IL-4 by 75% or more (FIG. 19).
After that, a repeated experiment and a two-concentration (10, 3 uM) test were performed using the selected 60 kinds of materials so as to select the final eight kinds, and the IC50 value was calculated and shown in Table 3.
In general terms: An ELISA detects its analyte on a solid surface through an enzyme-linked reagent.

The subject of data set [3] is IL-5 secretion in mouse splenocytes. Kind of data set: Inhibition of IL-5 secretion in mouse splenocytes (Concanavalin A, ELISA). In kind it is cell-based, Balb/c mice. The settings on record: for inhibition at 1 µM: Splenocyte, read-out: IL-5 Secretion inhibitory ability (%); for IL-5 pg/ml: Concanavalin A 5 μg/mL, 48 hours. How it is done: as §1
Another data set is described as follows: in vitro. The following applies: African green monkey.
The next data set deals with SARS-COV-2. Briefly: microbe, parasite or virus in culture. It counts as cell-based. The arrangement: SI (Selectivity Index, CC50/IC50): unit not given here. The following applies: for SI (Selectivity Index, CC50/IC50): SARS-COV-2, values >50 assumed to be 50; for IC50: read-out: SARS-COV-2 inhibition (IC50).
Setting [4] is: mouse splenocytes, compound 1 μM.
Where [5] appears, read: RBL-2H3 cells, 1 uM A23187, read-out: IL-4 secretion inhibition IC50.
Setting [6] is: Severe acute respiratory syndrome coronavirus 2, Vero cells, 24 hours infection.
[7] abbreviates: RBL-2H3, read-out: IL-4 secretion inhibition IC50 (μM).
[8] abbreviates: Severe acute respiratory syndrome coronavirus 2, Vero, 24 h.

Like-named read-outs stand apart in the source and are kept apart here.

The term IC50 denotes the concentration that gives 50% inhibition. As for `COc1cc2cc3c(c(-c4cnc(N5CCCC(C)C5)nc4)c2cc1OC)C(=O)OC3` (stereo not drawn) [Example 59, 6,7-dimethoxy-9-(2-(3-methylpiperidin-1-yl)pyrimidin-5-yl)naphtho[2,3-c]furan-1(3H)-one], in data set [1] (setting [4]), the inhibition at 1 µM worked out at 79% and the IL-4 pg/ml was 71.6 pg/mL. The IC50 in data set [2] (setting [5]) is 2.35 µM. Further, in data set [3] (setting [4]), the inhibition at 1 µM is 44.3% and the IL-5 pg/ml is 51.9 pg/mL. The molecule further gave a CC50 in the data set “in vitro” of more than 50000 nM. In addition, the “SI (Selectivity Index, CC50/IC50)” value in the data set with SARS-COV-2 amounted to 20.79. In addition, in the data set with SARS-COV-2 (setting [6]), the IC50 was found to be 2400 nM.
Consider `COc1cc2cc3c(c(-c4cnc(N(CC(C)C)CC(C)C)nc4)c2cc1OC)C(=O)OC3.Cl` [Example 86, 9-(2-(diisobutylamino)pyrimidin-5-yl)-6,7-dimethoxynaphtho[2,3-c]furan-1(3H)-one hydrochloride], for which the inhibition at 1 µM in data set [1] (Mus musculus) came to 71.8%; in data set [3] (Mus musculus), 23.7%. Also, the IL-4 pg/ml in data set [1] (setting [4]) stood at 96.0 pg/mL. The figures for the IC50 (in data set [2] (setting [7]); in the data set with SARS-COV-2 (setting [8])) were 2.21 µM and 25700 nM, respectively. The same molecule came in with an IL-5 pg/ml in data set [3] (setting [4]) of 71.0 pg/mL. The CC50 in the data set “in vitro” is 19200 nM. The “SI (Selectivity Index, CC50/IC50)” value with SARS-COV-2 is recorded as 0.75.
Turning to `COc1cc2cc3c(c(-c4cc5c(cc4OC(=O)c4ccccn4)OCO5)c2cc1OC)C(=O)OC3` [Example 169, 6-(6,7-dimethoxy-3-oxo-1,3-dihydronaphtho[2,3-c]furan-4-yl)benzo[d][1,3]dioxol-5-yl picolate], in data set [1] (setting [4]), the inhibition at 1 µM came out at 86.3% and the IL-4 pg/ml stood at 46.7 pg/mL. Besides, the half-inhibitory concentration (IC50) in data set [2] (setting [5]) was 2.34 µM. For the same molecule, in data set [3] (setting [4]), the inhibition at 1 µM turned out to be 27.9% and the IL-5 pg/ml is 67.1 pg/mL. The molecule also displayed a CC50 in the data set “in vitro” of more than 50000 nM. For the same molecule, in the data set on SARS-COV-2, the “SI (Selectivity Index, CC50/IC50)” value came to 40.73. The IC50 with SARS-COV-2 (setting [6]) amounted to 1230 nM.
`CCC(C)CN(C)c1ncc(-c2c3c(cc4cc(OC)c(OC)cc24)COC3=O)cn1` (stereo not drawn) [Example 65, 6,7-dimethoxy-9-(2-(methyl(2-methylbutyl)amino)pyrimidin-5-yl)naphtho[2,3-c]furan-1(3H)-one]: the inhibition at 1 µM was 99.5% in data set [1] (setting [4]) and 73% in data set [3] (setting [4]). Also, the IL-4 pg/ml in data set [1] (setting [4]) was 1.5 pg/mL. Moreover, the figures for the IC50 (in data set [2] (setting [5]); with SARS-COV-2 (setting [6])) were 2.18 µM and 2590 nM, respectively. For the same molecule, in data set [3] (setting [4]), the IL-5 pg/ml is 25.2 pg/mL. Further, the CC50 in the data set “in vitro” was more than 50000 nM. In addition, the “SI (Selectivity Index, CC50/IC50)” value in the data set on SARS-COV-2 is 19.30.
Turning to `CCCCN(C)c1ncc(-c2c3c(cc4cc(OC)c(OC)cc24)COC3=O)cn1.Cl` [Example 76, 9-(2-(butyl(methyl)amino)pyrimidin-5-yl)-6,7-dimethoxynaphtho[2,3-c]furan-1(3H)-one hydrochloride], the results for the inhibition at 1 µM in data set [1] (Mus musculus) and in data set [3] (Mus musculus) were 99.6% and 85.6%, respectively. The molecule further yielded an IL-4 pg/ml in data set [1] (setting [4]) of 1.2 pg/mL. In data set [2] (setting [7]), the IC50 worked out at 4.05 µM. In data set [3] (setting [4]), this molecule came in with an IL-5 pg/ml of 13.4 pg/mL. Also, the “SI (Selectivity Index, CC50/IC50)” value in the data set on SARS-COV-2 worked out at 270.89.
Take `COc1cc2cc3c(c(-c4cnc(N5CCSCC5)nc4)c2cc1OC)C(=O)OC3` [Example 63, 6,7-dimethoxy-9-(2-thiomorpholinopyrimidin-5-yl)naphtho[2,3-c]furan-1(3H)-one]: the inhibition at 1 µM is 99.6% in data set [1] (setting [4]) and 81.6% in data set [3] (setting [4]). In data set [1] (setting [4]), this molecule came in with an IL-4 pg/ml of 1.3 pg/mL. The results for the half-inhibitory concentration (IC50) (in data set [2] (setting [5]); with SARS-COV-2 (setting [6])) were 4.23 µM and 2120 nM, respectively. Besides, in data set [3] (setting [4]), the IL-5 pg/ml was 17.2 pg/mL. The CC50 in “in vitro” was more than 50000 nM. The “SI (Selectivity Index, CC50/IC50)” value in the data set with SARS-COV-2 is recorded as 23.56.
In the case of `COc1cc2cc3c(c(-c4cnc(N(C)C5CCCC5)nc4)c2cc1OC)C(=O)OC3.Cl` [Example 84, 9-(2-(cyclopentyl(methyl)amino)pyrimidin-5-yl)-6,7-dimethoxynaphtho[2,3-c]furan-1(3H)-one hydrochloride], the inhibition at 1 µM was determined as 99.7% in data set [1] (Mus musculus) and 88% in data set [3] (Mus musculus). In data set [1] (setting [4]), the IL-4 pg/ml is 1.1 pg/mL. Moreover, the IC50 in data set [2] (setting [7]) was determined as 5.23 µM; in the data set on SARS-COV-2 (setting [8]), 210 nM. In data set [3] (setting [4]), this molecule returned an IL-5 pg/ml of 11.2 pg/mL. Further, the CC50 in the data set “in vitro” was more than 50000 nM. Also, in the data set with SARS-COV-2, the “SI (Selectivity Index, CC50/IC50)” value is 237.53.

Values taken from patent publication US20240368104A1, “Novel Dialkoxynaphtho[2,3-C]Furan-1(3H)-One Derivatives and Pharmaceutical Composition For Preventing or Treating Respiratory Disease or SARS-COV-2 Infection Disease, Comprising Same” (priority 2021, published 2024).
